According to patent publication US20200360471A1, “METHODS OF TREATING AND PREVENTING VIRAL INFECTIONS” (priority 2017, published 2020):
Peptide text beside a SMILES is read from it.

Columns and labels:
TLR3/RIG-1/Mda5 = experiment: polyI:C-induced cytokine responses in PBMC cultures with peptide pre-treatment; type: cell-based, human; conditions: 5 or 25 μg/mL peptide, 30 min pre-treatment, 24 hrs
Method: (§1) Primary cell cultures were prepared in RPMI including 5% autologous plasma. Isolated PBMC cells were cultured in 96-well plates at a density of 0.5×10^6cells/well at 37° C., under humidified 5% CO2.
(§2) IL-1β, TNFα, IL-6 and IL-8 were measured simultaneously with a fixed electrochemoluminescence platform based on the sandwich ELISA principle of capture and detection antibodies, produced by MESO SCALE DISCOVERY (MSD, MESO SCALE QUICKPLEX SQ120). The applied assay was the V-PLEX PLUS pro-inflammatory cytokine panel II, including IL-1β, TNFα, IL-6 and IL-8. This assay includes manufacturer-provided control samples with indicated nominal values for comparison. These lyophilized controls, i.e. freeze-dried controls for IL-1β, TNFα, IL-6, IL-8, were prepared freshly at the time of use. QC samples were prepared from the calibrator at 3 different concentrations along the standard curve as multiple aliquots from a single batch and maintained at −20° C. Low, medium and high concentration controls were included in every multiplex assay run to control intra- and inter-assay variation. V-PLEX panels are specific for the detection of human chemokines and cytokines, and combinations have been validated by the manufacturer, to ensure no cross-reactivity.
(§3) IFNα was quantified by a sandwich ELISA based on specific capture and detection antibodies for various matrices (MABTECH), according to the manufacturer's instructions. QC samples were prepared from the calibrator at 3 different concentrations along the standard curve as multiple aliquots from a single batch and maintained at −20° C.
as §3, with “IFNβ” for “IFNα”, “(PBL ASSAY SCIENCE),” for “(MABTECH),”, “C. freezer.” for “C.”
Briefly, PBMC primary cultures were prepared from 4 healthy donors (2 males, 2 females) as described above. […] The cultures were prepared in duplicate and the readouts for pan-IFNα and IFNβ (ELISA) were measured once. Five-point concentration-response curves were constructed for the various treatment conditions in the PBMC cultures, freshly isolated from 4 subjects.

HPV6 and HPV11 = experiment: HPV viral load (qPCR) in swabs of target wart; type: in vivo
Method: (§4) The treatment period was from day 0 till day 84. During the treatment period subjects visited the clinical unit on days 0, 14, 28, 56 and 84. A fixed dose of omiganan or placebo was applied once daily. Two follow up visits were scheduled on days 126 and 168. During study execution, vital signs were measured on days 0, 14, 28, 56 and 84. Pharmacodynamic assessments were performed on day 0 (pre-dose), 14, 28, 56 and 84, respectively. Punch biopsies were performed at the screening and on days 56 and 168. Subjects were dosed 84 consecutive days with approximately 24 hours between each treatment.
HPV viral load in swabs. Swabs were taken from the target wart (or site where target wart was) at every study visit. A quantitative PCR (qPCR) of the swabs was performed for HPV6 and HPV11 to determine the viral load of the specific HPV. Swab samples were collected at day 0, 14, 28, 56, 84 (EOT), […] and 168 (EOS). In FIGS. 22A and 22B, the qPCR was expressed as copies/μL and natural log transformed. In FIGS. 23A and 23B, the qPCR was expressed as copies/μL, natural log transformed and also corrected for the amount of DNA in the sample.

IL-1β, IL-8 = experiment: Biomarkers (qPCR) in wart biopsies; type: in vivo, human; conditions: during the study period
Method: as §4
Biomarkers in biopsy. Biopsies were taken from biopsy wart 1 at screening, biopsy wart 2 at EOT and target wart at EOS. Biopsies were only taken when the warts were still visible.

TLR7 = experiment: Ongoing inflammation in PBMC cultures: imiquimod 3 hrs followed by omiganan 21 hrs; type: cell-based, human
Method: as §1, §2
Briefly, PBMC primary cultures were prepared from 4 donors. […] The readouts for the following cytokine and chemokine release were measured: IL-1β, IL-2, IL-4, IL-6, IL-8 HA, IL-8, IL-12p70, IL-13, IFN-γ, and TNF-α were measured. The cultures were prepared in duplicate.

TC-1 tumor = experiment: Tumor outgrowth and flow cytometry after intratumoral injections in TC-1 mice; type: in vivo
Method: Tumor growth was measured at days 9, 10, 12, 14, and 16.
Tumor growth was measured at day 9 (one day before injection), 10, 12, 14 and day 16 (at sacrifice).

[1] = test system: imiquimod-induced inflammatory responses of the skin; experiment: Topical omiganan and imiquimod in skin of healthy subjects; type: in vivo, human
Method: Sixteen (16) healthy subjects participated in the study. Pharmacodynamic effects were assessed on Day 1, 2, 3, 4, 5 and 14 (EOS) by clinical assessment of the lesion on-site with visual erythema grading by a blinded investigator, erythema by colorimetry, erythema by multispectral imaging, erythema by 2D photography analysis, perfusion by laser speckle contrast imaging (LSCI), skin surface biomarkers by transdermal analysis patch (TAP) and local biopsies biomarkers. […] 3 mm skin punch biopsies were collected at day 5 for qPCR mRNA expression, histology and immunohistochemistry. Enhanced inflammation and immune system activation was observed when OMN was applied to 48 hours IMQ primed skin. This was most pronounced for markers IFNγ, IL-10, IL-6, MX1 and MXA (FIGS. 39-43, respectively) indicating an increased anti-viral response. Further, this activity is correlated with cellular infiltrates of CD4+, CD8+ and CD14+ cells (FIGS. 44-47).

[2] = omiganan 25, 12.5, 6.25 μg/mL added after 3 hour imiquimod
[3] = omiganan added after 3 hour imiquimod, effect less obvious
[4] = omiganan applied after imiquimod application

`CC[C@H](C)[C@H](N)C(=O)N[C@@H](CC(C)C)C(=O)N[C@@H](CCCNC(=N)N)C(=O)N[C@@H](Cc1c[nH]c2ccccc12)C(=O)N1CCC[C@H]1C(=O)N[C@@H](Cc1c[nH]c2ccccc12)C(=O)N[C@@H](Cc1c[nH]c2ccccc12)C(=O)N1CCC[C@H]1C(=O)N[C@@H](Cc1c[nH]c2ccccc12)C(=O)N[C@@H](CCCNC(=N)N)C(=O)N[C@@H](CCCNC(=N)N)C(=O)N[C@@H](CCCCN)C(N)=O` [omiganan, I L R W P W W P W R R K] (H-ILRWPWWPWRRK-NH2) was tested. Which “IL-6 responses to polyI:C (TLR3/RIG-1/Mda5)” value (TLR3/RIG-1/Mda5) did it give?
Its value is “did not significantly affect”.

And the “TNFα responses to polyI:C (TLR3/RIG-1/Mda5)” value (TLR3/RIG-1/Mda5)?
The value was “did not significantly affect”.

And the “polyI:C-driven IL-1β release” value (TLR3/RIG-1/Mda5)?
The value was “did not significantly affect”.

What about the “spontaneous and polyI:C-driven IL-8 release” value (TLR3/RIG-1/Mda5) of the same molecule?
Its value is “strongly inhibited”.

And the “interferon responses induced by polyI:C stimulation” value (TLR3/RIG-1/Mda5; PBMC of 4 donors)?
Its value is “enhanced”.

What about the “viral load of HPV6 in swabs” value (HPV6 and HPV11; during omiganan treatment) of the same molecule?
Its value is “strong trend toward reduction”.

And the “HPV6 and HPV11 viral load compared to placebo” value (HPV6 and HPV11; swabs, qPCR, at EOT, p=0.0201)?
Its value is “statistical significant decrease”.

What about the “amount of IL-1β in biopsies” value (IL-1β, IL-8) of the same molecule?
Its value is “increased”.

And the “amount of IL-8 in biopsies” value (IL-1β, IL-8)?
The value was “increased”.

What about the IL-1β response (TLR7; [2]) of the same molecule?
The IL-1β response was “did not significantly modify”.

What about the IL-8 response (TLR7; [2]) of the same molecule?
Its IL-8 response is “significantly enhanced”.

What about the IL-6 response (TLR7; [3]) of the same molecule?
The IL-6 response was “enhanced”.

What about the TNF-α response (TLR7; [3]) of the same molecule?
Its TNF-α response is “enhanced”.

And the “tumor outgrowth compared to PBS-treated mice” value (TC-1 tumor; 30 nmol intratumoral on days 10, 12, 14)?
The value was “reduction in tumor outgrowth”.

And the “CD11c expression of Ly6C-low macrophages in TC-1 tumors (macrophage phenotype)” value (TC-1 tumor; flow cytometry after three intratumoral injections)?
The value was “lower CD11c expression”.

What about the “relation of this activity to cellular infiltrates of CD4+, CD8+ and CD14+ cells” value ([1]; applied to 48 hours IMQ primed skin, biopsies day 5) of the same molecule?
Its value is “correlated”.

And the “inflammation and immune system activation (most pronounced for IFNγ, IL-10, IL-6, MX1, MXA)” value ([1]; applied to 48 hours IMQ primed skin, biopsies day 5, qPCR)?
Its value is “Enhanced”.

What about the basal blood flow [1, 4] of the same molecule?
Its basal blood flow is “enhanced the activity of imiquimod”.

And the erythema [1, 4]?
The erythema was “enhanced the activity of imiquimod”.
